# According to publication PMC9518248, “Inhibition of Toxoplasma gondii by 1,2,4-triazole-based compounds: marked improvement in selectivity relative to the standard therapy pyrimethamine and sulfadiazine” (Journal of Enzyme Inhibition and Medicinal Chemistry, 2022):
# Read-outs that look alike come from different tables or passages of the source.
# Experiments:
# [1] = system: mouse fibroblasts L929 cells; parameters: method as in PMID 31022878, PMID 30744161; conditions: thiosemicarbazides 1a–27a; cited from earlier work
# [2] = system: T. gondii RH-GFP; parameters: method as in PMID 31022878, PMID 30744161; conditions: thiosemicarbazides 1a–27a, cited from earlier work; for SI: CC30/IC50Tg; for IC50Tg: T. gondii infected Hs27 cells
# [3] = system: T. gondii RH-GFP; assay: Antiparasitic assay: T. gondii RH-GFP proliferation in Hs27 cells; assay type: cell-based, Toxoplasma gondii; conditions: for IC50: Toxoplasma gondii, read-out: IC50Tg; for SI: selectivity index, CC30 (L929)/IC50Tg
# [4] = system: mouse fibroblasts L929 cells; assay: Cell viability assay (MTT, ISO 10993-5); assay type: cell-based; conditions: 24 h, highest dilution causing 30% or higher destruction of cells
# Description: Culture medium RPMI 1640, without phenol red (Biowest, Nuaille, France) supplemented with 10% FBS, 2 mM […] penicillin, 100 μg/mL streptomycin were used. Briefly, 1 × 10^4/well of L929 cells were placed in 96-well plates and incubated for 24 h at 37 °C and 10% CO2. Afterwards, the old culture medium was replaced with 100 μL of the compound, drug or inhibitor, diluted in culture medium and the cells treated for 24 h. Additionally, cells were treated with 0.03-4.0% concentration of DMSO as the solvent (data not shown). Then, 50 μL of 1 mg/mL of MTT solution in RPMI 1640 without phenol red was added to each well and incubated for 2 h at 37 °C and 10% CO2. Next, cell culture medium was aspirated carefully and 150 μL of DMSO was added to each well, and the plates were gently mixed. Then, 25 μL 0.1 M glycine buffer (pH 10.5) (Sigma-Aldrich) was added. The optical density at 570 nm using a multi-mode microplate reader SpectraMax® i3 (Syngen, Taipei City, Taiwan) was recorded. The results were expressed as a percentage of viability compared to untreated cells. All experiments were performed in triplicate. The reported methyl thiazolyltetrazole (MTT) method was used to study in vitro cytotoxic profile of the s-triazoles 1b-27b to the host cells (L929). Experiments were performed in accordance with the international standard IS0-10993-5:2009. […] The data for acyclic precursors 1a-27a are also included for comparison[39]^,[40].
# [5] = T. gondii RH-GFP in Hs27 cells, 96 h, values above highest tested concentration extrapolated
smiles,measurement,setting,value
Cc1nc[nH]c1C(=O)NNC(=S)Nc1ccc(I)cc1 [12a],CC30,[1],71.58 µg/mL
same,SI,[2],3.25
same,IC50Tg,[2],22.01 µg/mL
Cc1nc[nH]c1C(=O)NNC(=S)Nc1cc(F)ccc1F [13a],CC30,[1],158.49 µg/mL
same,SI,[2],2.95
same,IC50Tg,[2],53.7 µg/mL
"Cc1nc[nH]c1-c1n[nH]c(=S)n1-c1cc(F)ccc1F [13b, 4–(2,5-difluorophenyl)-5–(4-methylimidazol-5-yl)-1,2,4-triazole-3-thione]",IC50,[3]; [5],224 µg/mL
same,SI,[3],11.14
same,melting point,,253.9 °C
Cc1ccccc1NC(=S)NNC(=O)c1[nH]cnc1C [14a],CC30,[1],288.4 µg/mL
same,SI,[2],1.92
same,IC50Tg,[2],∼150.31 µg/mL
Cc1cccc(NC(=S)NNC(=O)c2[nH]cnc2C)c1 [15a],CC30,[1],50.12 µg/mL
same,SI,[2],1.35
same,IC50Tg,[2],37.15 µg/mL
Cc1ccc(NC(=S)NNC(=O)c2[nH]cnc2C)cc1 [16a],CC30,[1],34.67 µg/mL
same,SI,[2],0.60
same,IC50Tg,[2],∼57.58 µg/mL
Cc1ccc(-n2c(-c3[nH]cnc3C)n[nH]c2=S)cc1 [16b],IC50,[3]; [5],110 µg/mL
same,SI,[3],10.11
same,CC30,[4],1113.53 µg/mL
Cc1ccc(NC(=S)NNC(=O)c2[nH]cnc2C)cc1Cl [17a],CC30,[1],28.18 µg/mL
same,SI,[2],1.51
same,IC50Tg,[2],18.62 µg/mL
COc1ccccc1NC(=S)NNC(=O)c1[nH]cnc1C [18a],CC30,[1],138.04 µg/mL
same,SI,[2],4.17
same,IC50Tg,[2],33.11 µg/mL
"COc1ccccc1-n1c(-c2[nH]cnc2C)n[nH]c1=S [18b, 4–(2-methoxyphenyl)-5–(4-methylimidazol-5-yl)-1,2,4-triazole-3-thione]",IC50,[3]; [5],93.2 µg/mL
same,melting point,,145.2 °C
COc1cccc(NC(=S)NNC(=O)c2[nH]cnc2C)c1 [19a],CC30,[1],165.96 µg/mL
same,SI,[2],2.08
same,IC50Tg,[2],79.65 µg/mL
"COc1cccc(-n2c(-c3[nH]cnc3C)n[nH]c2=S)c1 [19b, 4–(3-methoxyphenyl)-5–(4-methylimidazol-5-yl)-1,2,4-triazole-3-thione]",IC50,[3]; [5],96.8 µg/mL
same,melting point,,228.8 °C
COc1ccc(NC(=S)NNC(=O)c2nc[nH]c2C)cc1 [20a],CC30,[1],389.05 µg/mL
same,SI,[2],3.41
same,IC50Tg,[2],113.99 µg/mL
COc1ccc(NC(=S)NNC(=O)c2[nH]cnc2C)cc1OC [21a],CC30,[1],>500 µg/mL
same,IC50Tg,[2],∼174.98 µg/mL
CCOc1ccc(NC(=S)NNC(=O)c2[nH]cnc2C)cc1 [22a],CC30,[1],500 µg/mL
same,SI,[2],5.25
same,IC50Tg,[2],95.28 µg/mL
CC(=O)c1cccc(NC(=S)NNC(=O)c2[nH]cnc2C)c1 [23a],CC30,[1],206.54 µg/mL
same,SI,[2],2.16
same,IC50Tg,[2],95.50 µg/mL
"CC(=O)c1cccc(-n2c(-c3[nH]cnc3C)n[nH]c2=S)c1 [23b, 4–(3-acetylphenyl)-5–(4-methylimidazol-5-yl)-1,2,4-triazole-3-thione]",IC50,[3]; [5],141 µg/mL
same,SI,[3],17.79
same,melting point,,151.9 °C
Cc1nc[nH]c1C(=O)NNC(=S)Nc1c(C(C)C)cccc1C(C)C [24a],CC30,[1],190.55 µg/mL
same,SI,[2],1.95
same,IC50Tg,[2],97.72 µg/mL
Cc1nc[nH]c1C(=O)NNC(=S)Nc1ccc(N(C)C)cc1 [25a],CC30,[1],112.2 µg/mL
same,SI,[2],0.68
same,IC50Tg,[2],∼164.70 µg/mL
CCN(CC)c1ccc(NC(=S)NNC(=O)c2[nH]cnc2C)cc1 [26a],CC30,[1],63.1 µg/mL
same,SI,[2],2.46
same,IC50Tg,[2],25.70 µg/mL
"CCc1nc(N)nc(N)c1-c1ccc(Cl)cc1 [PYR, pyrimethamine]",IC50,[3]; [5],1.79 µg/mL
same,SI,[3],6.34
same,CC30,[4],11.37 µg/mL
"Nc1ccc(S(=O)(=O)Nc2ncccn2)cc1 [SDZ, sulfadiazine]",IC50,"[3]; HS27, 96 h",4860 µg/mL
same,SI,[3],0.44
same,CC30,[4],2161.72 µg/mL
"COc1cc(Cc2cnc(N)nc2N)cc(OC)c1OC [TRI, trimethoprim, reference compound]",IC50,"[3]; HS27, 96 h",20.9 µg/mL
same,SI,[3],16.07
same,CC30,[4],336.20 µg/mL
